Measured values as given in patent US12648979B2, “Compositions comprising sulforaphane or a sulforaphane precursor and Moringa plant components” (Nutramax Laboratories, Inc., priority 2021, dated 2026).

Tests used:
[1] = tested on: NAD(P)H:quinone oxidoreductase 1 (NQO1) gene expression; test: NQO1 gene expression in RAW 264.7 macrophage cell line, quantitative RT-PCR (Examples 6, 7, 11); format: cell-based; conditions: 0.5 μM SFN; 24 hours
Method: In the study, the macrophage cell line RAW 264.7 was treated with dimethyl sulfoxide (DMSO) (vehicle control), sulforaphane (SFN), a maitake mushroom extract having about 20% beta-glucan content (Maitake), or the combination of sulforaphane and the maitake mushroom extract, for 24 hours. In particular, the cells were treated with one of the following: (i) DMSO (vehicle control), (ii) 0.5 μM SFN, (iii) 250 μg/mL Maitake, (iv) 500 μg/mL Maitake, (v) 750 μg/mL Maitake, (vi) 0.5 μM SFN and 250 μg/mL Maitake, (vii) 0.5 μM SFN and 500 μg/mL Maitake, and (viii) 0.5 μM SFN and 750 μg/mL Maitake. The gene expression of NQO-1 was analyzed via quantitative RT-PCR. The results, which are depicted in FIG. 2, show the following:
In the study, the macrophage cell line RAW 264.7 was treated with DMSO (vehicle control), sulforaphane (SFN), a shiitake mushroom extract having at least 20% alpha-glucan content (Shiitake), or the combination of sulforaphane and the shiitake mushroom extract, for 24 hours. […] The gene expression of NQO1 was analyzed via quantitative RT-PCR. […]
In the study, the macrophage cell line RAW 264.7 was treated with sulforaphane (SFN), Moringa plant components (MOR), or a combination of SFN and MOR, for 24 hours. […] The gene expression of NQO1 was analyzed via quantitative RT-PCR. […]

[2] = tested on: NAD(P)H:quinone oxidoreductase (NQO1); conditions: oral administration; cited from earlier work
[3] = tested on: heme oxygenase-1 (HO-1); conditions: oral administration; cited from earlier work
[4] = tested on: mammary tumors; conditions: rat, in vivo; cited from earlier work
[5] = tested on: Epstein-Barr virus-early antigen; conditions: in vitro; cited from earlier work
[6] = tested on: broccoli sprout-derived myrosinase; test: Consumption of glucoraphanin by myrosinase as a function of ascorbic acid concentration (Example 3); format: biochemical; conditions: 600 μmoles/Liter ascorbic acid
Method: A […] Interaction Chromatographic (HILIC) method was developed, comprising the following conditions: • Column: Waters BEH Amide, 1.7-μm particle size; 2.1 mm×100 mm; • Mobile Phase: 20% 10 mM Ammonium Acetate, pH 5.0; 80% acetonitrile; • Separation mode: isocratic; • Column Temperature: 70° C.; • Flow Rate: 0.7 mL/min.
About 250 mg of broccoli seed extract containing about 12% (w/w) glucoraphanin were subjected to hydrolysis by a fixed concentration of broccoli sprout-derived myrosinase in the presence of variable concentration of ascorbic acid, ranging from 0 to 600 μmoles/Liter. The reaction mixtures were thermostated at 38° C.; aliquots were withdrawn every 15 minutes for 60 minutes, and concentration of glucoraphanin determined chromatographically. The rate of glucoraphanin consumption was interpreted as the rate its conversion to sulforaphane. Graphical representation of glucoraphanin content reduction as a function of increasing ascorbic acid concentration results in a series of linear plots; the slopes of the linear regression lines reflect the rate of glucoraphanin consumption, in pmoles/minute. It is apparent that in the presence of 600 μmoles/Liter concentration of ascorbic acid, the reaction rate increased 13-fold relative to that which proceeded in the absence of modulatory effects of ascorbic acid.

[7] = tested on: myrosinase; test: Equimolar conversion of glucoraphanin to sulforaphane by myrosinase, HPLC (Example 4); format: biochemical, broccoli; conditions: PART 2, broccoli seed extract 250 mg
Method: A two-part experiment was conducted to further elucidate the role of ascorbic acid in modulating myrosinase activity. All solutions were prepared in 20 mM Tris-buffered saline, at pH 7.5, previously identified as an optimal for myrosinase activity; each sample tube had 100 mg of freeze-dried broccoli powder accurately weighed in as a source of myrosinase. Experiment was conducted at 38° C. for 2 hours, with sample aliquots removed in 30-minute increments, and both glucoraphanin and sulforaphane content assessed by HPLC. […] A control sample contained no ascorbic acid, and the enzymatic conversion proceeded unassisted by a co-factor. PART 1. In the presence of the fixed concentration of ascorbic acid, 1 mmol/Liter, an increasing amount of broccoli seed extract (about 12% glucoraphanin, w/w) was added, ranging from 250 mg to 500 mg. PART 2. While keeping the amount of broccoli seed extract fixed at 250 mg, the concentration of ascorbic acid was varied from 0.4 mmol/Liter to 3.8 mmol/Liter.

[8] = tested on: myrosinase; test: Conversion of glucoraphanin to sulforaphane in Simulated Intestinal Fluid (Example 5); format: biochemical, broccoli; conditions: 38° C., ascorbic acid 0.25 to 1.00 mmol/Liter, FIG. 1
Method: Simulated Intestinal Fluid (SIF) powder, a commercially supplied concentrate closely approximating the human intestinal content in terms of composition, pH and ionic strength, was used. The experiment utilized a USP Dissolution Apparatus 2 (paddles), where into six dissolution vessels 500 mL of Simulated Intestinal Fluid was dispensed, along with 150 mg of freeze-dried broccoli sprout powder as a source of myrosinase. […] Aliquots were withdrawn every 15 minutes, and assayed for sulforaphane.

## C[S+]([O-])CCCCN=C=S (centres unmarked) [SFN, 1-isothiocyanato-4-methylsulfinylbutane]
[1]
  Fold increase in NQO-1 gene expression: 12.96
[2]
  increase in NQO1 enzymatic activity in the mammary epithelium: 3 fold
[3]
  elevated immunostaining of HO-1 in the mammary epithelium: 4 fold
[4]
  blocking the formation of mammary tumors: effective in blocking the formation of mammary tumors

## CCCCCCCCC=CCCCCCCCC(=O)OCC1OC(OC2CCC3(C)C(=CCC4C3CCC3(C)C(C(C)CCC(CC)C(C)C)CCC43)C2)C(O)C(O)C1O [3-O-(6′-O-oleoyl-β-D-glucopyranosyl)-β-sitosterol]
[5]
  inhibitory effects on Epstein-Barr virus-early antigen: significant inhibitory effects

## O=C1O[C@H]([C@@H](O)CO)C(O)=C1O [ascorbic acid]
[6]
  increase of reaction rate relative to absence of ascorbic acid: 13 fold
[7]
  ascorbic acid concentration up to which myrosinase-promoted conversion increases linearly, then levels off: about 2 mmol/L
[8]
  yield of sulforaphane versus ascorbic acid concentration: direct correlation between larger yield of sulforaphane and higher concentrations of ascorbic acid

## CCOC(=S)NCc1ccc(OC2OC(C)C(O)C(O)C2O)cc1 (centres unmarked) [niazimicin]
[5]
  inhibitory effects on Epstein-Barr virus-early antigen: significant inhibitory effects

## CCOC(=O)NCc1ccc(O[C@@H]2O[C@@H](C)[C@H](O)[C@@H](O)[C@H]2O)cc1 [O-Ethyl-4-(α-L-rhamnosyloxy)benzyl carbamate]
[5]
  inhibitory effects on Epstein-Barr virus-early antigen: significant inhibitory effects

## C[C@@H]1O[C@@H](Oc2ccc(CN=C=S)cc2)[C@H](O)[C@H](O)[C@H]1O [4(α-L-rhamnosyloxy)-benzyl isothiocyanate]
[5]
  inhibitory effects on Epstein-Barr virus-early antigen: significant inhibitory effects
